Substitutions are numbered along the chain they refer to. Where a SMILES comes first, the peptide text is derived from it. The star is where a group is joined. Cbz = O=C(OCc1ccccc1)*; CH2F = FC*
Key:
[1] = target: T1, UCHL1 (Homo sapiens, UniProt P09936); assay: Fluorescence-based Ub-Rho deubiquitinase activity assay; format: biochemical; set-up: made in house; settings: IC50, after approximately 112 min preincubation
T1 sequence (P09936 1-223): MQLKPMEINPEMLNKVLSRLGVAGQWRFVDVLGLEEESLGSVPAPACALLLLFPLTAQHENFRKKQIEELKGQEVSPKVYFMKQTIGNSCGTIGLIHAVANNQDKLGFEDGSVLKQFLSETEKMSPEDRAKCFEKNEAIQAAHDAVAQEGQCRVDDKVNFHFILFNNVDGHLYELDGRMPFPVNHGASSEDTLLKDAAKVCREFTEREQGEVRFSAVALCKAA

[2] = target: T2, UCHL5 (Homo sapiens, UniProt Q9Y5K5); set-up: method as in PMID 22617491; settings: concentrations up to 400 µM; cited from earlier work
T2 sequence (Q9Y5K5 1-245 limits assumed): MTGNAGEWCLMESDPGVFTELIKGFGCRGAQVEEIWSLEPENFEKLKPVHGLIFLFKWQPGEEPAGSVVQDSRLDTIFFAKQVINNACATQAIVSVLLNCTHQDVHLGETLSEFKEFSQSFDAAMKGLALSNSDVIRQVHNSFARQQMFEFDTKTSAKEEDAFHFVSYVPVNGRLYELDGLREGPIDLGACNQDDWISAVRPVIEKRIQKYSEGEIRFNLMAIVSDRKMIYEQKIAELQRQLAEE

[3] = target: T1, UCHL1; assay: SW1271 cell activity-based probe target engagement assay
Experimental: UCHL1 is a key promoter of cell invasion and metastasis in small cell lung cancer but not necessarily required for cell viability or proliferation. Thus, we chose to assess the efficacy of targeting UCHL1 using the SW1271 small cell lung cancer cell line. […] The Ub-ABP assay was used to confirm on target engagement of UCHL1 within these cells.
[…] Cell pellets were thawed on ice before resuspending in 200 µL lysis buffer (50 mM Tris pH 7.6, 150 mM NaCl, 5 mM MgCl2, 0.5 mM EDTA, 5 mM DTT, 2 mM ATP, 0.5% NP-40, 10% v/v glycerol) and incubating on ice for 30 min with vigorous vortexing every 10 min. Cell lysate was clarified by centrifugation (17,000× g for 10 min) and the supernatant was collected, and the concentration was determined by Bradford (performed according to manufacturer’s protocol). Cells were normalized to 2 mg mL^−1. To each reaction mixture was added 36 µL of lysate and 2 µL of HA-Ub-VME or lysis buffer. This was incubated for 30 min at room temperature before quenching with 15 µL of 4X Laemmli buffer and heating to 95 °C for 5 min. Samples were subjected to SDS-PAGE and immunoblot.

[4] = target: T3, UCHL1 C90A (Homo sapiens, UniProt P09936, C90A); assay: Mass spectrometry analysis of 34 adducts on UCHL1; format: binding
T3 construct: His (N); made in house
T3 sequence (P09936 1-223 C90A): T1 sequence (P09936 1-223) with C90A
Experimental: (§1) A common shortcoming to covalent inhibitors is that the reactive electrophilic groups may partake in non-specific labeling of off-target cysteines. To investigate if alternative cysteines are affected on UCHL1 we used analog 34 to confirm that the fluoromethylketone derivatives only conjugate Cys90. […] Additionally, samples were analyzed by mass spectrometry to increase sensitivity for detection of any non-Cys90 adducts. […]
(§2) Solutions containing 10 µM recombinant UCHL1^WT or UCHL1^C90A (from pET15b) (49 µL) was incubated with either 10 µM or 20 µM inhibitor for 3 h at room temperature in PBS starting block buffer (Thermo Scientific # 37538). To quench reaction, chilled acetone was added to the sample to achieve an overall 80% acetone solution. After overnight storage at −20 °C, suspension was centrifuged at 14,000× g at 4 °C for 15 min. Supernatant was discarded, and pellet was dried by vacuum centrifugation for 1 h. Pellet was reconstituted in 50/50 water/acetonitrile with 0.1% formic acid. 25 pmol per sample was analyzed by LC/MS (Agilent 1260 Infinity II with a ZORBAX Rapid Resolution High Definition 300Å Stable Bond C3, 2.1 × 100 mm, 1.8 µm column) attached to an Agilent 6129 quadrupole mass spectrometer in positive ion mode.
(§3) The column was held at 45 °C. Mobile solution A was 0.1% formic acid in water, and mobile phase B was 0.1% formic acid in acetonitrile. The gradient used was hold at 5% B for 5 min, increase linearly to […] for 10, and then hold at 95% B for 5 min. The mass data were collected at a range of 500–1000 m/z.
(§4) Raw data were processed using MestReNova. For all samples, the deconvoluted mass was calculated with a charged state range from 27 to 36, m/z range of 670–900 Da, and deconvoluted mass range from 25,000–26,000 Da. […] For C90A mutant, this abundance threshold was lowered to 5% to detect the presence of any reacted protein. 34 adduct is expected to be +486.00 Da after displacement of fluorine.

[5] = target: T4, WT-UCHL1 (Homo sapiens, UniProt P09936); assay: Mass spectrometry analysis of 34 adducts on UCHL1; format: binding; settings: WT-UCHL1 + 34 (1:1)
T4 construct: His (N); made in house
T4 sequence (P09936 1-223): T1 sequence (P09936 1-223)
Experimental: as §1, §2, §3, §4

Row | SMILES | IC50 [1] [µM] | activity toward UCHL5 [2] | selectivity over other DUBs in SW1271 cells (HA blot) ([3]; HA immunoblot) | HA-Ub-VME complex formation with UCHL1 in SW1271 cells ([3]; dose-response, UCHL1 immunoblot) | Adduct(s) Observed (Da) ([4]; UCHL1 C90A + 34 (1:1)) | Adduct(s) Observed (Da) ([4]; UCHL1 C90A + 34 (1:2)) | Adduct(s) Observed (Da) [5]
1 | COC(=O)CC[C@H](NC(=O)[C@H](C)NC(=O)[C@@H](NC(=O)OCc1ccccc1)C(C)C)C(=O)CF [Cpd 1, benzyloxycarbonyl-Val-Ala-Glu(γ-methoxy)-fluoromethylketone] (Cbz-Val-Ala-Glu(OMe)-CH2F) | 29 | not possess any activity |  |  |  |  | 
2 | C#Cc1ccc(COC(=O)N[C@H](C(=O)N[C@@H](C)C(=O)N[C@@H](CCC(=O)OC)C(=O)CF)C(C)C)cc1 [Cpd 34] |  |  | demonstrated selectivity over other DUBs | inhibited HA-Ub-VME complex formation with UCHL1 in a dose-dependent manner | none | no adducts observed and none | +486.00 Da

Source: publication PMC7956625, “Optimization and Anti-Cancer Properties of Fluoromethylketones as Covalent Inhibitors for Ubiquitin C-Terminal Hydrolase L1” (Molecules, 2021)
